# Results taken from patent US7192924B2, “Corticotropin releasing factor 2 receptor agonists” (priority 2002, dated 2007).
# pEC50: −log10 of the molar value. Peptide text beside a SMILES is read from it.
# Key:
# CRF2R = molecular target: T1, CRF2R (Homo sapiens, UniProt Q13324); experiment: CRF2R agonist activity (EC50, Emax), called comparative CRF binding; type: cell-based; settings: read-out: CRF2R EC50
# T1 sequence (Q13324 1-411): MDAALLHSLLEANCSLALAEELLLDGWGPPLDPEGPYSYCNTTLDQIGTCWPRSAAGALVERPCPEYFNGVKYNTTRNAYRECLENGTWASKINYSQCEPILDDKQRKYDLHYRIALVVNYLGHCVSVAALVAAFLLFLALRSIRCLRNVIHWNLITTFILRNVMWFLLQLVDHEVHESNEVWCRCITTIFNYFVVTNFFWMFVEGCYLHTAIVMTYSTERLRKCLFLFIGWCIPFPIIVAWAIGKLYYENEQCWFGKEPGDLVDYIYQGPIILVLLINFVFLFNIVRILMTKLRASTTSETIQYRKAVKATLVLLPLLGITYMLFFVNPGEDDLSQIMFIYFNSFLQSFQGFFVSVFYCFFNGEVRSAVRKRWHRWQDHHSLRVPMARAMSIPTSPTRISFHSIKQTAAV
# Procedure, shortened: (§1)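 Cells expressing only CRF1R or only CRF2R (or recombinant receptor) are contacted with peptide or vehicle control. Receptor activation is read as cAMP induction, measured in cell lysates or via a cAMP-responsive-element reporter gene such as luciferase.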
# CRF1R = molecular target: T2, CRF1R (Homo sapiens, UniProt P34998); experiment: CRF1R agonist activity (EC50, Emax), called comparative CRF binding; type: cell-based; settings: read-out: CRF1R EC50
# T2 sequence (P34998 24-415): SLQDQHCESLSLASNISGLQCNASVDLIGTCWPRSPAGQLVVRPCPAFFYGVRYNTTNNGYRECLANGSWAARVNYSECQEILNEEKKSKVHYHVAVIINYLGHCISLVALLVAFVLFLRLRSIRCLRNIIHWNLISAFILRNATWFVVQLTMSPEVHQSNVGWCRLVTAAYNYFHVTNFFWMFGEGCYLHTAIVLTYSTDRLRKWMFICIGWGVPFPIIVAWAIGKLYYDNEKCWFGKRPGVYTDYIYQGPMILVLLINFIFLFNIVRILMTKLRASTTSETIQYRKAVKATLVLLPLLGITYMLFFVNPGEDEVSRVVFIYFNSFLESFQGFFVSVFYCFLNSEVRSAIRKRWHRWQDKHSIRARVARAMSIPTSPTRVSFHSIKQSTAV
# Procedure, shortened: as §1
SMILES,pEC50 (CRF2R),pEC50 (CRF1R)
CC[C@H](C)[C@H](N)C(=O)N[C@H](C(=O)N[C@@H](CC(C)C)C(=O)N[C@@H](CO)C(=O)N[C@@H](CC(C)C)C(=O)N[C@@H](CC(=O)O)C(=O)N[C@H](C(=O)N1CCC[C@H]1C(=O)N[C@H](C(=O)NCC(=O)N[C@@H](CC(C)C)C(=O)N[C@@H](CC(C)C)C(=O)N[C@@H](CCC(N)=O)C(=O)N[C@H](C(=O)N[C@@H](CC(C)C)C(=O)N[C@@H](CC(C)C)C(=O)N[C@@H](CCC(=O)O)C(=O)N[C@@H](CCC(N)=O)C(=O)N[C@@H](CCC(=O)O)C(=O)N[C@@H](CCCCN)C(=O)N[C@@H](CCC(N)=O)C(=O)N[C@@H](CCC(=O)O)C(=O)N[C@@H](CCCCN)C(=O)N[C@@H](CCC(=O)O)C(=O)N[C@@H](CCCCN)C(=O)N[C@@H](CCC(N)=O)C(=O)N[C@@H](CCC(N)=O)C(=O)N[C@@H](C)C(=O)N[C@H](C(=O)N[C@H](C(=O)N[C@@H](CC(N)=O)C(=O)N[C@@H](C)C(=O)N[C@@H](CCCNC(=N)N)C(=O)N[C@H](C(=O)N[C@@H](CC(C)C)C(=O)N[C@@H](C)C(=O)N[C@@H](CCCNC(=N)N)C(=O)N[C@H](C(N)=O)C(C)C)[C@@H](C)CC)[C@@H](C)O)[C@@H](C)O)[C@@H](C)CC)[C@@H](C)CC)C(C)C)C(C)C [compound 167] (H-IVLSLDVPIGLLQILLEQEKQEKEKQQATTNARILARV-NH2; N-terminus assumed),7.89,≤ 6.00
CC[C@H](C)[C@H](NC(=O)[C@H](C)NC(=O)[C@H](CC(N)=O)NC(=O)[C@H](CCC(N)=O)NC(=O)[C@H](CCC(=O)O)NC(=O)[C@H](C)NC(=O)[C@H](CCCNC(=N)N)NC(=O)[C@H](CCC(=O)O)NC(=O)[C@H](CCCNC(=N)N)NC(=O)[C@H](CCC(N)=O)NC(=O)[C@H](CO)NC(=O)[C@H](CCC(N)=O)NC(=O)[C@@H](NC(=O)[C@H](CCCNC(=N)N)NC(=O)[C@H](C)NC(=O)[C@H](CC(C)C)NC(=O)[C@H](CCC(=O)O)NC(=O)[C@H](CC(C)C)NC(=O)[C@H](CC(C)C)NC(=O)[C@@H](NC(=O)[C@H](CCCNC(=N)N)NC(=O)[C@H](CC(C)C)NC(=O)[C@H](CC(C)C)NC(=O)[C@H](CC(C)C)NC(=O)[C@H](CC(C)C)NC(=O)[C@@H]1CCCN1C(=O)[C@H](CC(C)C)NC(=O)[C@H](CC(=O)O)NC(=O)[C@@H](NC(=O)[C@H](CO)NC(=O)[C@H](CC(C)C)NC(=O)[C@H](CO)NC(=O)[C@@H]1CCCN1C(=O)[C@H](CC(N)=O)NC(=O)[C@@H](N)CC(=O)O)[C@@H](C)CC)[C@@H](C)O)[C@@H](C)O)C(=O)N[C@H](C(=O)N[C@@H](Cc1ccccc1)C(=O)N[C@@H](C)C(=O)N[C@@H](CO)C(=O)N[C@H](C(N)=O)C(C)C)[C@@H](C)CC [compound 174] (H-DNPSLSIDLPLLLLRTLLELARTQSQRERAEQNAIIFASV-NH2; N-terminus assumed),8.35,≤ 6.00
CC[C@H](C)[C@H](NC(=O)[C@H](C)NC(=O)[C@H](CC(N)=O)NC(=O)[C@H](CCC(N)=O)NC(=O)[C@H](CCC(=O)O)NC(=O)[C@H](C)NC(=O)[C@H](CCCNC(=N)N)NC(=O)[C@H](CCC(=O)O)NC(=O)[C@H](CCCNC(=N)N)NC(=O)[C@H](CCC(N)=O)NC(=O)[C@H](CO)NC(=O)[C@H](CCC(N)=O)NC(=O)[C@@H](NC(=O)[C@H](CCCNC(=N)N)NC(=O)[C@H](C)NC(=O)[C@H](CC(C)C)NC(=O)[C@H](CCC(=O)O)NC(=O)[C@H](CC(C)C)NC(=O)[C@H](CC(C)C)NC(=O)[C@@H](NC(=O)[C@H](CCCNC(=N)N)NC(=O)[C@H](CC(C)C)NC(=O)[C@H](CC(C)C)NC(=O)[C@H](CCC(N)=O)NC(=O)[C@H](CC(C)C)NC(=O)[C@@H]1CCCN1C(=O)[C@H](CC(C)C)NC(=O)[C@H](CC(=O)O)NC(=O)[C@@H](NC(=O)[C@H](CO)NC(=O)[C@H](CC(C)C)NC(=O)[C@H](CO)NC(=O)[C@@H]1CCCN1C(=O)[C@H](CC(N)=O)NC(=O)[C@@H](N)CC(=O)O)[C@@H](C)CC)[C@@H](C)O)[C@@H](C)O)C(=O)N[C@H](C(=O)N[C@@H](Cc1ccccc1)C(=O)N[C@@H](C)C(=O)N[C@@H](CO)C(=O)N[C@H](C(N)=O)C(C)C)[C@@H](C)CC [compound 176] (H-DNPSLSIDLPLQLLRTLLELARTQSQRERAEQNAIIFASV-NH2; N-terminus assumed),7.90,≤ 6.00
CC[C@H](C)[C@H](NC(=O)[C@H](C)NC(=O)[C@H](CC(N)=O)NC(=O)[C@H](CCC(N)=O)NC(=O)[C@H](CCC(=O)O)NC(=O)[C@H](C)NC(=O)[C@H](CCCNC(=N)N)NC(=O)[C@H](CCC(=O)O)NC(=O)[C@H](CCCNC(=N)N)NC(=O)[C@H](CCC(N)=O)NC(=O)[C@H](CO)NC(=O)[C@H](CCC(N)=O)NC(=O)[C@@H](NC(=O)[C@H](CCCNC(=N)N)NC(=O)[C@H](C)NC(=O)[C@H](CC(C)C)NC(=O)[C@H](CCC(=O)O)NC(=O)[C@H](CC(C)C)NC(=O)[C@H](CC(C)C)NC(=O)[C@@H](NC(=O)[C@H](CCCNC(=N)N)NC(=O)[C@H](CC(C)C)NC(=O)[C@H](CC(C)C)NC(=O)[C@H](Cc1ccc(O)cc1)NC(=O)[C@H](CC(C)C)NC(=O)[C@@H]1CCCN1C(=O)[C@H](CC(C)C)NC(=O)[C@H](CC(=O)O)NC(=O)[C@@H](NC(=O)[C@H](CO)NC(=O)[C@H](CC(C)C)NC(=O)[C@H](CO)NC(=O)[C@@H]1CCCN1C(=O)[C@H](CC(N)=O)NC(=O)[C@@H](N)CC(=O)O)[C@@H](C)CC)[C@@H](C)O)[C@@H](C)O)C(=O)N[C@H](C(=O)N[C@@H](Cc1ccccc1)C(=O)N[C@@H](C)C(=O)N[C@@H](CO)C(=O)N[C@H](C(N)=O)C(C)C)[C@@H](C)CC [compound 177] (H-DNPSLSIDLPLYLLRTLLELARTQSQRERAEQNAIIFASV-NH2; N-terminus assumed),8.25,6.21
CC[C@H](C)[C@H](NC(=O)[C@H](C)NC(=O)[C@H](CC(N)=O)NC(=O)[C@H](CCC(N)=O)NC(=O)[C@H](CCC(=O)O)NC(=O)[C@H](C)NC(=O)[C@H](CCCNC(=N)N)NC(=O)[C@H](CCC(=O)O)NC(=O)[C@H](CCCNC(=N)N)NC(=O)[C@H](CCC(N)=O)NC(=O)[C@H](CO)NC(=O)[C@H](CCC(N)=O)NC(=O)[C@@H](NC(=O)[C@H](CCCNC(=N)N)NC(=O)[C@H](C)NC(=O)[C@H](CC(C)C)NC(=O)[C@H](CCC(=O)O)NC(=O)[C@H](CC(C)C)NC(=O)[C@H](CC(C)C)NC(=O)[C@@H](NC(=O)[C@H](CCCNC(=N)N)NC(=O)[C@H](CC(C)C)NC(=O)[C@H](CC(C)C)NC(=O)[C@H](Cc1ccccc1)NC(=O)[C@H](CC(C)C)NC(=O)[C@@H]1CCCN1C(=O)[C@H](CC(C)C)NC(=O)[C@H](CC(=O)O)NC(=O)[C@@H](NC(=O)[C@H](CO)NC(=O)[C@H](CC(C)C)NC(=O)[C@H](CO)NC(=O)[C@@H]1CCCN1C(=O)[C@H](CC(N)=O)NC(=O)[C@@H](N)CC(=O)O)[C@@H](C)CC)[C@@H](C)O)[C@@H](C)O)C(=O)N[C@H](C(=O)N[C@@H](Cc1ccccc1)C(=O)N[C@@H](C)C(=O)N[C@@H](CO)C(=O)N[C@H](C(N)=O)C(C)C)[C@@H](C)CC [compound 178] (H-DNPSLSIDLPLFLLRTLLELARTQSQRERAEQNAIIFASV-NH2; N-terminus assumed),8.29,≤ 6.00
CC[C@H](C)[C@H](NC(=O)[C@H](C)NC(=O)[C@H](CC(N)=O)NC(=O)[C@H](CCC(N)=O)NC(=O)[C@H](CCC(=O)O)NC(=O)[C@H](C)NC(=O)[C@H](CCCNC(=N)N)NC(=O)[C@H](CCC(=O)O)NC(=O)[C@H](CCCNC(=N)N)NC(=O)[C@H](CCC(N)=O)NC(=O)[C@H](CO)NC(=O)[C@H](CCC(N)=O)NC(=O)[C@@H](NC(=O)[C@H](CCCNC(=N)N)NC(=O)[C@H](C)NC(=O)[C@H](CC(C)C)NC(=O)[C@H](CCC(=O)O)NC(=O)[C@H](CC(C)C)NC(=O)[C@H](CC(C)C)NC(=O)[C@@H](NC(=O)[C@H](CCCNC(=N)N)NC(=O)[C@H](CC(C)C)NC(=O)[C@H](CC(C)C)NC(=O)[C@H](Cc1c[nH]cn1)NC(=O)[C@H](CC(C)C)NC(=O)[C@@H]1CCCN1C(=O)[C@H](CC(C)C)NC(=O)[C@H](CC(=O)O)NC(=O)[C@@H](NC(=O)[C@H](CO)NC(=O)[C@H](CC(C)C)NC(=O)[C@H](CO)NC(=O)[C@@H]1CCCN1C(=O)[C@H](CC(N)=O)NC(=O)[C@@H](N)CC(=O)O)[C@@H](C)CC)[C@@H](C)O)[C@@H](C)O)C(=O)N[C@H](C(=O)N[C@@H](Cc1ccccc1)C(=O)N[C@@H](C)C(=O)N[C@@H](CO)C(=O)N[C@H](C(N)=O)C(C)C)[C@@H](C)CC [compound 179] (H-DNPSLSIDLPLHLLRTLLELARTQSQRERAEQNAIIFASV-NH2; N-terminus assumed),7.99,6.32
